Laboratory results published in patent US10166218B2, “3-(1H-indol-2-yl)-1H-pyrazolo[3,4-C]pyridines and therapeutic uses thereof” (Samumed, LLC, priority 2015, dated 2019).

Assays:
Assay type in all cases: cell-based
[1] = test system: SW480 colon cancer cells; assay: Cell viability assay (CellTiter-Blue) in SW480 colon cancer cells; conditions: Homo sapiens, 96 h, four days; for inhibition at 10 µM: read-out: percent inhibition at 10 μM (given for EC50 of >10 μM); for EC50: CellTiter-Blue
Outline: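 SW480 colon cancer cells (~2×10^3/well) exposed to 8-point 1:3 dilutions from 10 μM to 0.0045 μM for four days at 37 °C/5% CO2. Viability read by resazurin (CellTiter-Blue) fluorescence after ~3 h, Ex 560/Em 590 nm. EC50 from non-linear regression; percent inhibition at 10 μM given when EC50 >10 μM.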

[2] = test system: Wnt activity (Sp5-Luc reporter, TCF/LEF binding sites) in SW480 colon carcinoma cells; assay: Screening assay for Wnt activity: Sp5-Luc reporter gene assay in stably transduced SW480 cells; conditions: Homo sapiens, overnight incubation
Outline: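 Luminescence (BrightGlo) was normalised to DMSO-only wells and fitted with a four-parameter variable-slope model for EC50; beyond 10 μM, % inhibition at 10 μM is given. Stable Sp5-Luc SW480 reporter cells, 4,000/well in 1% FBS, were exposed overnight at 37 °C to compounds, top 10 μM, 1:3 dilutions, 0.1% DMSO.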

[3] = test system: IL-6 (THP-1 cells); assay: Inhibition of IL-6 in LPS-stimulated THP-1 human monocyte cells (HTRF); conditions: for EC50: inhibition of IL-6 in LPS-stimulated THP-1 cells, HTRF, 10-point dose-response starting from 10 μM; for inhibition at 10 µM: IL-6 assay in LPS-stimulated THP-1 cells, given only where EC50 >10 μM, meaning not given (top concentration 10 μM), read-out: percentage given in parentheses after EC50 >10
Outline: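 THP-1 cells, serum-reduced (1% FBS) for 24 h, were preincubated with compound (10-point 1:3 series from 10 μM, 0.1% DMSO) for 2 h, then stimulated with 500 ng/mL LPS for 22 h at 37° C. IL-6 was read by HTRF (665/620 nm ratio) and normalized to DMSO. EC50 from four-parameter fit; % inhibition at 10 μM given if EC50 >10 μM.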

Structure (SMILES) | EC50 [1] | EC50 [2] | EC50 [3] | inhibition at 10 µM [1] | inhibition at 10 µM [3]
O=C(Nc1cncc(-c2cc3c(-c4cc5c(-c6ccncc6)cccc5[nH]4)n[nH]c3cn2)c1)C1CCC1 [Compound 133, N-(5-(3-(4-(Pyridin-4-yl)-1H-indol-2-yl)-1H-pyrazolo[3,4-c]pyridin-5-yl)pyridin-3-yl)cyclobutanecarboxamide] | > 10000 nM | 401 nM | 251 nM | 45.9% | 
CN(C)Cc1cncc(-c2cc3c(-c4cc5c(-c6ccccn6)cccc5[nH]4)n[nH]c3cn2)c1 [Compound 153, N,N-Dimethyl-1-(5-(3-(4-(pyridin-2-yl)-1H-indol-2-yl)-1H-pyrazolo[3,4-c]pyridin-5-yl)pyridin-3-yl)methanamine] | 2060 nM | 711 nM | 989 nM |  | 
O=C(Nc1cncc(-c2cc3c(-c4cc5ccccc5[nH]4)n[nH]c3cn2)c1)c1ccccc1 [Compound 263, N-(5-(3-(1H-Indol-2-yl)-1H-pyrazolo[3,4-c]pyridin-5-yl)pyridin-3-yl) benzamide] | 4920 nM | 199 nM | 1190 nM |  | 
c1ccc2[nH]c(-c3n[nH]c4cnc(-c5cncc(CN6CCCC6)c5)cc34)cc2c1 [Compound 266, 3-(1H-Indol-2-yl)-5-(5-(pyrrolidin-1-ylmethyl)pyridin-3-yl)-1H-pyrazolo [3,4-c]pyridine] | 1640 nM | 390 nM | 424 nM |  | 
CC(C)(C)CC(=O)Nc1cncc(-c2cc3c(-c4cc5ccccc5[nH]4)n[nH]c3cn2)c1 [Compound 268, N-(5-(3-(1H-Indol-2-yl)-1H-pyrazolo[3,4-c]pyridin-5-yl)pyridin-3-yl)-3,3-dimethylbutanamide] | > 10000 nM | 615 nM | > 10000 nM | 4.5% | 25.1%
O=C(Nc1cncc(-c2cc3c(-c4cc5ccccc5[nH]4)n[nH]c3cn2)c1)C1CCCCC1 [Compound 275, N-(5-(3-(1H-Indol-2-yl)-1H-pyrazolo[3,4-c]pyridin-5-yl)pyridin-3-yl) cyclohexanecarboxamide] | > 10000 nM | 635 nM | 92 nM | 35.4% | 
c1cc(-c2ccoc2)c2cc(-c3n[nH]c4cnc(-c5cncc(CN6CCCCC6)c5)cc34)[nH]c2c1 [Compound 323, 3-(4-(Furan-3-yl)-1H-indol-2-yl)-5-(5-(piperidin-1-ylmethyl)pyridin-3-yl)-1H-pyrazolo[3,4-c]pyridine] | 2340 nM | 2770 nM | 3490 nM |  | 
CCNCc1cncc(-c2cc3c(-c4cc5c(-c6cc(F)cc(NCCN(C)C)c6)cccc5[nH]4)n[nH]c3cn2)c1 [Compound 454, N^1-(3-(2-(5-(5-((Ethylamino)methyl)pyridin-3-yl)-1H-pyrazolo[3,4-c]pyridin-3-yl)-1H-indol-4-yl)-5-fluorophenyl)-N^2,N^2-dimethylethane-1,2-diamine] | 1480 nM | 1260 nM | 856 nM |  | 
Cc1ccncc1-c1cc2c(-c3cc4c(-c5cc(F)cc(CNS(C)(=O)=O)c5)cccc4[nH]3)n[nH]c2cn1 [Compound 481, N-(3-Fluoro-5-(2-(5-(4-methylpyridin-3-yl)-1H-pyrazolo[3,4-c]pyridin-3-yl)-1H-indol-4-yl)benzyl)methanesulfonamide] | 1930 nM | 195 nM | 1180 nM |  | 
CS(=O)(=O)NCc1cc(F)cc(-c2cccc3[nH]c(-c4n[nH]c5cnc(-c6cncc(NC(=O)c7ccccc7)c6)cc45)cc23)c1 [Compound 487, N-(5-(3-(4-(3-Fluoro-5-(methylsulfonamidomethyl)phenyl)-1H-indol-2-yl)-1H-pyrazolo[3,4-c]pyridin-5-yl)pyridin-3-yl)benzamide] | > 10000 nM | 800 nM | > 10000 nM | 45.4% | 28.8%
CS(=O)(=O)NCc1cc(F)cc(-c2cccc3[nH]c(-c4n[nH]c5cnc(-c6cncnc6)cc45)cc23)c1 [Compound 503, N-(3-Fluoro-5-(2-(5-(pyrimidin-5-yl)-1H-pyrazolo[3,4-c]pyridin-3-yl)-1H-indol-4-yl)benzyl)methanesulfonamide] | 4000 nM | 560 nM | 2980 nM |  | 

Second part, led by results:

EC50 [1] | EC50 [2] | EC50 [3] | Structure (SMILES) | inhibition at 10 µM [1] | inhibition at 10 µM [3]
> 10000 nM | 1230 nM | > 10000 nM | c1cc(-c2ccncc2)c2cc(-c3n[nH]c4cnc(-c5cncnc5)cc34)[nH]c2c1 [Compound 139, 3-(4-(Pyridin-4-yl)-1H-indol-2-yl)-5-(pyrimidin-5-yl)-1H-pyrazolo[3,4-c]pyridine] | 15.5% | 3%
1920 nM | 255 nM | 549 nM | Nc1cncc(-c2cc3c(-c4cc5c(-c6ccccn6)cccc5[nH]4)n[nH]c3cn2)c1 [Compound 143, 5-(3-(4-(Pyridin-2-yl)-1H-indol-2-yl)-1H-pyrazolo[3,4-c]pyridin-5-yl) pyridin-3-amine] |  | 
814 nM | 567 nM | 2830 nM | Cc1ccncc1-c1cc2c(-c3cc4c(-c5ccccn5)cccc4[nH]3)n[nH]c2cn1 [Compound 145, 5-(4-Methylpyridin-3-yl)-3-(4-(pyridin-2-yl)-1H-indol-2-yl)-1H-pyrazolo [3,4-c]pyridine] |  | 
2810 nM | 3480 nM | 1560 nM | CCCCC(=O)Nc1cncc(-c2cc3c(-c4cc5c(-c6ccccn6)cccc5[nH]4)n[nH]c3cn2)c1 [Compound 159, N-(5-(3-(4-(Pyridin-2-yl)-1H-indol-2-yl)-1H-pyrazolo[3,4-c]pyridin-5-yl)pyridin-3-yl)pentanamide] |  | 
> 10000 nM | 2420 nM | 4960 nM | O=C(Nc1cncc(-c2cc3c(-c4cc5c(N6CCCCC6)cccc5[nH]4)n[nH]c3cn2)c1)C1CC1 [Compound 188, N-(5-(3-(4-(Piperidin-1-yl)-1H-indol-2-yl)-1H-pyrazolo[3,4-c]pyridin-5-yl)pyridin-3-yl)cyclopropanecarboxamide] | 25.3% | 
6210 nM | 1830 nM | > 10000 nM | FC1(F)CCN(Cc2cncc(-c3cc4c(-c5cc6c(N7CCCCC7)cccc6[nH]5)n[nH]c4cn3)c2)C1 [Compound 194, 5-(5-((3,3-Difluoropyrrolidin-1-yl)methyl)pyridin-3-yl)-3-(4-(piperidin-1-yl)-1H-indol-2-yl)-1H-pyrazolo[3,4-c]pyridine] |  | 0%
1950 nM | 700 nM | 753 nM | CC(C)C(=O)Nc1cncc(-c2cc3c(-c4cc5c(N6CCN(C)CC6)cccc5[nH]4)n[nH]c3cn2)c1 [Compound 233] |  | 
> 10000 nM | 1970 nM | 967 nM | CN1CCN(c2cccc3[nH]c(-c4n[nH]c5cnc(-c6cncc(NC(=O)C7CCC7)c6)cc45)cc23)CC1 [Compound 245] | 64.6% | 
659 nM | 448 nM | 91 nM | CN(C)CCNc1cc(F)cc(-c2cccc3[nH]c(-c4n[nH]c5cnc(-c6cncc(N)c6)cc45)cc23)c1 [Compound 451, N^1-(3-(2-(5-(5-Aminopyridin-3-yl)-1H-pyrazolo[3,4-c]pyridin-3-yl)-1H-indol-4-yl)-5-fluorophenyl)-N^2,N^2-dimethylethane-1,2-diamine] |  | 
437 nM | 386 nM | 286 nM | CN(C)CCNc1cc(F)cc(-c2cccc3[nH]c(-c4n[nH]c5cnc(-c6cncc(NC(=O)C(C)(C)C)c6)cc45)cc23)c1 [Compound 456, N-(5-(3-(4-(3-((2-(Dimethylamino)ethyl)amino)-5-fluorophenyl)-1H-indol-2-yl)-1H-pyrazolo[3,4-c]pyridin-5-yl)pyridin-3-yl)pivalamide] |  | 
964 nM | 1310 nM | 657 nM | CN(C)CCNc1cc(F)cc(-c2cccc3[nH]c(-c4n[nH]c5cnc(-c6cncc(CN(C)C)c6)cc45)cc23)c1 [Compound 461, N^1-(3-(2-(5-(5-((Dimethylamino)methyl)pyridin-3-yl)-1H-pyrazolo[3,4-c]pyridin-3-yl)-1H-indol-4-yl)-5-fluorophenyl)-N^2,N^2-dimethylethane-1,2-diamine] |  | 
2860 nM | 3750 nM | 1560 nM | CN(C)CCNc1cc(F)cc(-c2cccc3[nH]c(-c4n[nH]c5cnc(-c6ccccn6)cc45)cc23)c1 [Compound 476, N^1-(3-Fluoro-5-(2-(5-(pyridin-2-yl)-1H-pyrazolo[3,4-c]pyridin-3-yl)-1H-indol-4-yl)phenyl)-N^2,N^2-dimethylethane-1,2-diamine] |  | 
1230 nM | 248 nM | 404 nM | Nc1cncc(-c2cc3c(-c4cc5ncccc5[nH]4)n[nH]c3cn2)c1 [Compound 507, 5-(3-(1H-Pyrrolo[3,2-b]pyridin-2-yl)-1H-pyrazolo[3,4-c]pyridin-5-yl) pyridin-3-amine] |  | 
